The source of these data is patent US20230134059A1, “[…] AND METHODS FOR CORRECTING, SLOWING, REDUCING, AND/OR CONTROLLING THE PROGRESSION OF MYOPIA IN CONJUNCTION WITH USE OF ATROPINE OR RELATED COMPOUNDS” (Brien Holden Vision Institute Limited, priority 2020, published 2023).

For one data set, the system named is eye of a -2.00 D myope. As to the kind of experiment: Spherical aberration of combined spectacle lens and eye system after Atropine-induced pupil increase. The conditions noted are these: pupillary diameter increased from about 3 mm to about 6 mm with use of Atropine. In kind it is in vivo. An excerpt: FIG. 1A illustrates a schematic plot of pupil diameters resulting from use of Atropine, a widely used muscarinic receptor antagonist and a pharmaceutical agent for myopia therapy. […] Considering FIG. 1A, it is observed that use of 0.01% Atropine which to date is the lowest concentration used for treatment of myopia in individuals, increases the photopic pupillary diameter by approximately 1 mm. Increasing the concentration to anywhere from 0.025% to 0.1% Atropine, increases the photopic pupil size from about 2 mm to about 3 mm. With the highest concentration of 0.5% Atropine, the increase in photopic pupil size was largest and at about 3 mm. An increase in pupil size increases aberrations of the eye. […] FIG. 1B illustrates the increase in higher order aberrations from 3rd to 6th order as determined by aberrometry for the myopic eye of an individual who has a distance refractive error of approximately −2.00 D. It is observed that there is a significant increase in aberrations with a larger pupil. An increase in the pupil size may result in a functional decrement in visual performance and one or more unwanted effects such as poorer visual performance, reduced contrast, blurred vision, increased glare and increased photophobia (sensitivity to light). […]

The test system of data set [1] is myopic children aged 8-10 years. The conditions noted are these: cited from earlier work.
The test system of data set [2] is eye of individuals treated for myopia. Conditions: cited from earlier work.
Another data set has as its system children aged 6-12 years. The conditions noted are these: concentrations greater than 0.1% Atropine; cited from earlier work.
The subject of another data set is myopia progression. The conditions noted are these: Atropine eye drops 0.01% to 1.0%; cited from earlier work.

Where two headings read alike, the source gives them in different places.

As for `CN1[C@@H]2CC[C@H]1C[C@@H](OC(=O)C(CO)c1ccccc1)C2` (some centres unmarked) [Atropine], the “effective increase of spherical aberration of combined spectacle lens and eye system” value in the data set on eye of a -2.00 D myope is given as “about +0.50 D”. Also, the “request photochromic progressive lenses, % of the time” value in data set [1] (atropine 0.01%) is 6%; in data set [1] (atropine 0.1%), 61%; in data set [1] (atropine 0.5%) it was 70%. In addition, in data set [2] (0.01% Atropine), the “increase in photopic pupillary diameter” value was “approximately 1 mm”. The “increase in photopic pupil size” value in data set [2] (0.5% Atropine (highest concentration)) is reported as “about 3 mm”. In addition, in the data set on children aged 6-12 years, the “reduction in amplitude of accommodation” value is listed as “more than half”. The “efficacy in slowing myopia, concentration dependent response” value in the data set on myopia progression was “the higher the concentration, the greater the efficacy”.
